Results published in patent publication EP0037516A1, “N-omega substituted derivatives of 1-Desamino-vasopressin analogs” (VEGA LABORATORIES, INC., priority 1980, dated 1981).
Marks after values point to notes of the source that are not given here. *1 amine or outer side, *2 acyl side, *3 side chain or, on linkers, in order; H or OH if unused. Where a SMILES comes first, the peptide text is derived from it. Bridges are numbered along the chain shown (N, C = ends). Side-chain parts run from the residue outwards. [ ]: non-standard residue; d: D form. Thz = O=C(O)[C@@H]1CSCN1; X1 = O=C(CCC[*:2])[*:1]; Mpa = O=C(O)CCS

Columns and labels:
[1] = Pressor assay in rats, calibrated against arginine-vasopressin; type: in vivo, male Sprague-Dawley rats; conditions: for Peak Potency (pressor activity): 200g male Sprague-Dawley rats, calibrated against arginine-vasopressin; for Mean Peak Potency (Product) F: pressor activity, peak potency multiplied by F; for Ratio of Half-Life of Compound to Parent Half-Life (F): pressor response; for pressor activity (in words): comment on Table 3
[2] = Antidiuretic assay in rats, calibrated against arginine-vasopressin; type: in vivo, male Sprague-Dawley rats; conditions: for Peak Potency (antidiuretic activity): 200g male Sprague-Dawley rats, calibrated against arginine-vasopressin; for Mean Peak Potency (Product) F: antidiuretic activity, peak potency multiplied by F; for Ratio of Half-Life of Compound to Parent Half-Life (F): antidiuretic response; for antidiuretic activity (in words): comment on Table 4
Factor VIII [3] = experiment: Factor VIII release, clotting assay in male canine citrated plasma; type: in vivo; conditions: for Factor VIII Releasing Activity: male canine citrated plasma, calibrated against desmopressin; for Factor VIII releasing activity (in words): comment on Table 5
Description: Pressor and antidiuretic assays of the compounds of Examples I-IV were carried out in 200g body weight, male Sprague-Dawley rats using the techniques reported by Schaechtelin et al in "Enhancement of the Activity of Angiotensin II by Certain Cations," Molec. Pharmacol., 10, 57-67 (1974) and Cort et al in "Role of the Disulfide Bridge and the C-Terminal Tripeptide in the Anti-diuretic Action of Vasopressin in Man and the Rat", Kidney Internat. , 8, 292-302 (1975), with calibration of responses against a 3-point curve using highly purified arginine-vasopressin of known activity. Similar tests were performed on known vasopressin analogs for purposes of comparison. In addition, the release of Factor VIII by the compounds of Examples I-IV was tested in male canine citrated plasna using the clotting assay described by Prowse et al, in Brit. J. Haematol., 41, 437 (1979), and the results were calibrated against the Factor VIII releasing activity of desmopressin. In all cases, the half-lives of the responses were compared to the standard at equi-peak-potent levels.

Factor VIII [4] = experiment: Factor VIII releasing activity in pentothal-anesthetized dogs, standard clotting assay; type: in vivo; conditions: for Factor VIII Releasing Activity: dogs
Description: The 9-Ala-NH2 analogs of Examples XII and XIII were evaluated for ability to stimulate production of Factor VIII by administration to pentothal-anesthestized dogs. These analogs, as well as desmopressin used as a control, were administered i.v. into the external jugular vein at a dose of 10 meg/kg body weight. Factor VIII analysis was performed by standard clotting assay (using normal dog plasma as 100% clotting and severely hemophilic dog plasma as 0% for the standard curve) just prior to injection, and at periodic intervals for up to 4 hours after injection.

[5] = no comparator footnote (parent itself)
[6] = as compared to 1-desamino-[8-Lys]-vasopressin (footnote ***)
[7] = as compared to [8-Lys]-vasopressin (footnote *)
[8] = Pre-Injection, normal dog plasma = 100% clotting
[9] = as compared to [2-Phe,8-Lys]-vasopressin

Compound | Peak Potency (pressor activity) [1] | Mean Peak Potency (Product) F [1] | Peak Potency (antidiuretic activity) [2] | Mean Peak Potency (Product) F [2] | Ratio of Half-Life of Compound to Parent Half-Life (F) ([2]; comparator not given) | pressor activity (in words) [1] | antidiuretic activity (in words) [2] | Factor VIII Releasing Activity (Factor VIII [3]) | further results
NCCCC[C@H](NC(=O)[C@@H]1CCCN1C(=O)[C@@H]1CSSC[C@H](N)C(=O)N[C@@H](Cc2ccc(O)cc2)C(=O)N[C@@H](Cc2ccccc2)C(=O)N[C@@H](CCC(N)=O)C(=O)N[C@@H](CC(N)=O)C(=O)N1)C(=O)NCC(N)=O [[8-Lys]-vasopressin, reference compound] | 220 IU/mg | 220 | 200 IU/mg | 220 | 1.0 | – | – | – | Ratio of Half-Life of Compound to Parent Half-Life (F) [1, 5]: 1.0
NCC(=O)NCC(=O)NCC(=O)NCCCC[C@H](NC(=O)[C@@H]1CCCN1C(=O)[C@@H]1CSSCCC(=O)N[C@@H](Cc2ccc(O)cc2)C(=O)N[C@@H](Cc2ccccc2)C(=O)N[C@@H](CCC(N)=O)C(=O)N[C@@H](CC(N)=O)C(=O)N1)C(=O)NCC(N)=O [Example II, 1-Desamino-[8-N^ε-Lys(Gly-Gly-Gly)]-Vasopressin] | 15 IU/mg | 157.5 | 8 IU/mg | 44 | 5.5 | prolonged pressor activity of higher potency than that of tGLVP | low antidiuretic activity | 104% | Ratio of Half-Life of Compound to Parent Half-Life (F) [1, 6]: 10.5***
NCCCC[C@H](NC(=O)[C@@H]1CCCN1C(=O)[C@@H]1CSSCCC(=O)N[C@@H](Cc2ccc(O)cc2)C(=O)N[C@@H](Cc2ccccc2)C(=O)N[C@@H](CCC(N)=O)C(=O)N[C@@H](CC(N)=O)C(=O)N1)C(=O)NCC(N)=O [1-desamino-[8-Lys]-vasopressin, reference compound] | 126 IU/mg | 189 | 300 IU/mg | 450 | 1.5 | – | – | – | Ratio of Half-Life of Compound to Parent Half-Life (F) [1, 7]: 1.5*
CC[C@H](C)[C@@H]1NC(=O)[C@H](Cc2ccc(O)cc2)NC(=O)CCSSC[C@@H](C(=O)N2CCC[C@H]2C(=O)N[C@H](CCCCNC(=O)CN)C(=O)NCC(N)=O)NC(=O)[C@H](CC(N)=O)NC(=O)[C@H](CCC(N)=O)NC1=O [Example III, 1-Desamino-[8-D-N^ε-Lys(Gly)]-Vasotocin] ([Mpa]YIQNCP[dK](Gly)G-NH2; disulfide 1-6) | 0.1 IU/mg | – | 290 IU/mg | 1508 | – | substantially devoid of pressor activity | considerable antidiuretic activity | 165% | Ratio of Half-Life of Compound to Parent Half-Life (F) ([2]; as compared to 1-desamino-[8-Lys]-vasopressin (footnote *)): 5.2*; Factor VIII releasing activity (in words) (Factor VIII [3]): significant activity in releasing Factor VIII
C[C@@H](NC(=O)[C@H](CCCCNC(=O)CNC(=O)CNC(=O)CN)NC(=O)[C@@H]1CCCN1C(=O)[C@@H]1CSSCCC(=O)N[C@@H](Cc2ccc(O)cc2)C(=O)N[C@@H](Cc2ccccc2)C(=O)N[C@@H](CCC(N)=O)C(=O)N[C@@H](CC(N)=O)C(=O)N1)C(N)=O [Example XII, 1-Desamino-[8-N^9-Lys(Gly-Gly-Gly), 9-D-Ala]-vasopressin] ([Mpa]YFQNCPK([Gly-Gly-Gly])[dA]-NH2; disulfide 1-6) | – | – | – | – | – | – | – | – | Factor VIII Releasing Activity (Factor VIII [4]; 15 min. after i.v. 10 meg/kg): 110%; Factor VIII Releasing Activity (Factor VIII [4]; 60 min. after i.v. 10 meg/kg): 165%; Factor VIII Releasing Activity (Factor VIII [4]; 120 min. after i.v. 10 meg/kg): 185%; Factor VIII Releasing Activity (Factor VIII [4]; 240 min. after i.v. 10 meg/kg): 220%; Factor VIII Releasing Activity (Factor VIII [4]; [8]): 100%
NCCCC[C@H](NC(=O)[C@@H]1CCCN1C(=O)[C@@H]1CSSC[C@H](N)C(=O)N[C@@H](Cc2ccccc2)C(=O)N[C@@H](Cc2ccccc2)C(=O)N[C@@H](CCC(N)=O)C(=O)N[C@@H](CC(N)=O)C(=O)N1)C(=O)NCC(N)=O [[2-Phe, 8-Lys]-vasopressin, reference compound] (H-CFFQNCPKG-NH2; disulfide 1-6) | 80 IU/mg | 80 | 25 IU/mg | 25 | 1.0 | – | – | – | Ratio of Half-Life of Compound to Parent Half-Life (F) [1, 5]: 1.0
NCCCC[C@H](NC(=O)[C@@H]1CCCN1C(=O)[C@@H]1CSSCCC(=O)N[C@@H](Cc2ccccc2)C(=O)N[C@@H](Cc2ccccc2)C(=O)N[C@@H](CCC(N)=O)C(=O)N[C@@H](CC(N)=O)C(=O)N1)C(=O)NCC(N)=O [1-desamino-[2-Phe, 8-Lys]-vasopressin, 1-desamino-[2-Phe, 8-Lys]vasopressin, reference compound] ([Mpa]FFQNCPKG-NH2; disulfide 1-6) | 45 IU/mg | 67.5 | 30 IU/mg | 45 | 1.5 | – | – | – | Ratio of Half-Life of Compound to Parent Half-Life (F) [1, 9]: 1.5**
NCCCC[C@H](NC(=O)[C@@H]1CCCN1C(=O)[C@@H]1CSSC[C@H](NC(=O)CNC(=O)CNC(=O)CN)C(=O)N[C@@H](Cc2ccc(O)cc2)C(=O)N[C@@H](Cc2ccccc2)C(=O)N[C@@H](CCC(N)=O)C(=O)N[C@@H](CC(N)=O)C(=O)N1)C(=O)NCC(N)=O [tGLVP, N^c<-glycyl-glycyl-glycyl-8-lysine-vasopressin, reference compound] (H-GGGCYFQNCPKG-NH2; disulfide 4-9) | 2.1 IU/mg | 8.4 | 1.1 IU/mg | 9.2 | 4.0 | – | – | – | Ratio of Half-Life of Compound to Parent Half-Life (F) [1, 7]: 4.0*
Desmopressin [reference compound] | – | – | – | – | – | – | – | 250% | Factor VIII Releasing Activity (Factor VIII [4]; 15 min. after i.v. 10 meg/kg): 125%; Factor VIII Releasing Activity (Factor VIII [4]; 60 min. after i.v. 10 meg/kg): 185%; Factor VIII Releasing Activity (Factor VIII [4]; 120 min. after i.v. 10 meg/kg): 125%; Factor VIII Releasing Activity (Factor VIII [4]; 240 min. after i.v. 10 meg/kg): 105%; Factor VIII Releasing Activity (Factor VIII [4]; [8]): 98%; Factor VIII releasing activity (in words) (Factor VIII [4]; comment on Table 6, 4 hours after injection): substantially decreased to zero at 4 hours
C[C@H](NC(=O)[C@@H](CCCCNC(=O)CNC(=O)CNC(=O)CN)NC(=O)[C@@H]1CCCN1C(=O)[C@@H]1CSSCCC(=O)N[C@@H](Cc2ccc(O)cc2)C(=O)N[C@@H](Cc2ccccc2)C(=O)N[C@@H](CCC(N)=O)C(=O)N[C@@H](CC(N)=O)C(=O)N1)C(N)=O [Example XIII, 1-Desamino-[Q-D-NE-Lys(Gly-Gly-Gly), 9-Ala-NH2]-vasopressin] ([Mpa]YFQNCP[dK]([Gly-Gly-Gly])A-NH2; disulfide 1-6) | – | – | – | – | – | – | – | – | Factor VIII Releasing Activity (Factor VIII [4]; 15 min. after i.v. 10 meg/kg): 115%; Factor VIII Releasing Activity (Factor VIII [4]; 60 min. after i.v. 10 meg/kg): 153%; Factor VIII Releasing Activity (Factor VIII [4]; 120 min. after i.v. 10 meg/kg): 175%; Factor VIII Releasing Activity (Factor VIII [4]; 240 min. after i.v. 10 meg/kg): 210%; Factor VIII Releasing Activity (Factor VIII [4]; [8]): 105%
CC(C)C[C@H](N)C(=O)NCCCC[C@H](NC(=O)[C@@H]1CSCN1C(=O)[C@@H]1CSCCCC(=O)N[C@@H](Cc2ccc(O)cc2)C(=O)N[C@@H](Cc2ccccc2)C(=O)N[C@@H](CCC(N)=O)C(=O)N[C@@H](CC(N)=O)C(=O)N1)C(=O)NCC(N)=O [Example IV, 1-Desamino-1-monocarba-[7-thioPro, 8-NE-Lys(Leu)]-Vasopressin] (YFQNC[Thz]K(Leu)G-NH2; linker N-5 via X1) | 350 IU/mg | 3675 | 450 IU/mg | 3015 | 6.7 | prolonged pressor activity of higher potency than that of tGLVP | considerable antidiuretic activity | 285% | Ratio of Half-Life of Compound to Parent Half-Life (F) [1, 6]: 10.5***; Factor VIII releasing activity (in words) (Factor VIII [3]): significant activity in releasing Factor VIII
NCC(=O)NCCCC[C@H](NC(=O)[C@@H]1CCCN1C(=O)[C@@H]1CSSCCC(=O)N[C@@H](Cc2ccccc2)C(=O)N[C@@H](Cc2ccccc2)C(=O)N[C@@H](CCC(N)=O)C(=O)N[C@@H](CC(N)=O)C(=O)N1)C(=O)NCC(N)=O [Example I, l-Desamino-[2-Phe, 8-N^ε-Lys(Gly)]-Vasopressin] ([Mpa]FFQNCPK(Gly)G-NH2; disulfide 1-6) | 6.9 IU/mg | 60 | 6 IU/mg | 24 | 4.0 | prolonged pressor activity of higher potency than that of tGLVP | low antidiuretic activity | 101% | Ratio of Half-Life of Compound to Parent Half-Life (F) [1, 9]: 8.7**
